In patent US20260022142A1, “MACROCYCLIC IMMUNOMODULATORS” (Bristol-Myers Squibb Company, priority 2022, published 2026):
Numbered stars: 1 amine (or outer) side, 2 acyl side, 3 side chain; on linkers, the order of the positions; unused ones are H or OH. Bridge positions count the residues as written; N and C are the ends. Square brackets hold non-standard residues; d marks the D form. Peptide text beside a SMILES is read from it. * marks the point of attachment. ξ: configuration not given here. Bip = N[C@@H](Cc1ccc(-c2ccccc2)cc1)C(=O)O; Phe(3-Me) = Cc1cccc(C[C@H](N)C(=O)O)c1; X5 = CC(C)(CCN)[C@H](N[*:1])C(=O)[*:2]; Val(3-OH) = CC(C)(O)[C@H](N)C(=O)O; Val(3-F) = CC(C)(F)[C@H](N)C(=O)O; 4Pal = N[C@@H](Cc1ccncc1)C(=O)O; Cha = N[C@@H](CC1CCCCC1)C(=O)O; CH2COCH2 = O=C(C[*:1])C[*:2]; Carboxymethyl = O=C(O)C*; Orn = NCCC[C@H](N)C(=O)O; Aun = NCCCCCCCCCCC(=O)O; Dab = NCC[C@H](N)C(=O)O; Piv = CC(C)(C)C(=O)*; ξV = CC(C)C(N)C(=O)O

Target: T1, PD-1/PD-L1 interaction (PE-labeled human PD-L1-Ig binding to Jurkat cell line over-expressing human PD-1) (Homo sapiens, UniProt Q15116)
T1 construct: expressed in transfected cells; host or cells: Jurkat
Assay: Jurkat-PD-1 Cell Binding High-Content Screening Assay (CBA)
Assay type: cell-based
Conditions: Jurkat cell line over-expressing human PD-1; PE-labeled PD-L1-Ig 20 nM final; read-out: Jurkat hPD1-PDL1 IC50
Method in brief: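 Jurkat cells stably over-expressing human PD-1 were seeded in DMEM with 10% fetal calf serum and pre-incubated with compound for 2 h at 37° C. PE-labeled human PD-L1-Ig was then added at 20 nM final for 1 hour, after which cells were fixed with paraformaldehyde, Hoechst-stained and imaged by high-content microscopy.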

T1 sequence (Q15116 25-288): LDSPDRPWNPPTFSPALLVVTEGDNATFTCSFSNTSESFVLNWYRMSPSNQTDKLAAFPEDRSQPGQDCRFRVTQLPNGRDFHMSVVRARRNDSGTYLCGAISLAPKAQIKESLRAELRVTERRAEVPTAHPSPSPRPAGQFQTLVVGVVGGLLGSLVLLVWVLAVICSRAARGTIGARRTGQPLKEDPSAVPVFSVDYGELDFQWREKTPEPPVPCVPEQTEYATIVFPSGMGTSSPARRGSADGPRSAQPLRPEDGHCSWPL

Row | SMILES | IC50
1 | Cc1cccc(C[C@@H]2NC(=O)[C@H](CC(=O)O)NC(=O)[C@H](Cc3ccc(OCC(=O)O)cc3)NC(=O)[C@H](CCCNC(=N)N)NC(=O)CSC[C@@H](C(=O)N[C@@H](CCN)C(=O)NCCCCCCCCCCC(=O)O)NC(=O)[C@H](CO)NC(=O)[C@H](C(C)(C)O)NC(=O)[C@H](CC3CCCCC3)NC(=O)[C@H](CCN)NC(=O)[C@@H](CC(C)C)NC(=O)[C@H](CCCN)NC(=O)[C@H](Cc3ccc(OCC(=O)O)cc3)NC(=O)[C@H](Cc3ccc(-c4ccccc4)cc3)NC(=O)[C@H](Cc3ccc(O)cc3)NC2=O)c1 [Compound 2111] ({CH2CO}-RY(Carboxymethyl)D[Phe(3-Me)]Y[Bip]Y(Carboxymethyl)[Orn][dL][Dab][Cha][Val(3-OH)]SC[Dab][Aun]-OH; thioether N-14) | 6.4 nM
2 | Cc1cccc(C[C@@H]2NC(=O)[C@H](CC(=O)O)NC(=O)[C@H](Cc3ccc(OCC(=O)O)cc3)NC(=O)[C@H](CCNC(=O)C(C)(C)C)NC(=O)CSC[C@@H](C(=O)N[C@@H](CCN)C(=O)NCCCCCCCCCCC(=O)O)NC(=O)[C@H](CCC(N)=O)NC(=O)[C@H](C(C)C)NC(=O)[C@H](CC3CCCCC3)NC(=O)[C@H](CCN)NC(=O)[C@@H](CC(C)C)NC(=O)[C@H](CCCN)NC(=O)[C@H](Cc3ccc(OCC(=O)O)cc3)NC(=O)[C@H](Cc3ccc(-c4ccccc4)cc3)NC(=O)[C@H](Cc3ccc(O)cc3)NC2=O)c1 [Compound 2112] ({CH2CO}-[Dab](Piv)Y(Carboxymethyl)D[Phe(3-Me)]Y[Bip]Y(Carboxymethyl)[Orn][dL][Dab][Cha]VQC[Dab][Aun]-OH; thioether N-14) | 5.5 nM
3 | Cc1cccc(C[C@@H]2NC(=O)[C@H](CC(=O)O)NC(=O)[C@H](Cc3ccc(OCC(=O)O)cc3)NC(=O)[C@H](CCCNC(=N)N)NC(=O)CSC[C@@H](C(=O)N[C@@H](CCN)C(=O)NCCCCCCCCCCC(=O)O)NC(=O)[C@H](CCC(N)=O)NC(=O)[C@H](C(C)C)NC(=O)[C@H](CC3CCCCC3)NC(=O)[C@H](CCN)NC(=O)[C@@H](CC(C)C)NC(=O)[C@H](CCCN)NC(=O)[C@H](Cc3ccc(OCC(=O)O)cc3)NC(=O)[C@H](Cc3ccc(-c4ccccc4)cc3)NC(=O)[C@H](C(C)(C)O)NC2=O)c1 [Compound 2113] ({CH2CO}-RY(Carboxymethyl)D[Phe(3-Me)][Val(3-OH)][Bip]Y(Carboxymethyl)[Orn][dL][Dab][Cha]VQC[Dab][Aun]-OH; thioether N-14) | 8.7 nM
4 | CC(=O)COc1ccc(C[C@@H]2NC(=O)[C@H](Cc3cccc(C)c3)NC(=O)[C@H](CC(=O)O)NC(=O)[C@H](Cc3ccc(OCC(=O)O)cc3)NC(=O)[C@H](CCCNC(=N)N)NC(=O)CSC[C@@H](C(=O)N[C@@H](CCN)C(=O)NCCCCCCCCCCC(=O)O)NC(=O)[C@H]([C@@H](C)O)NC(=O)[C@H](C(C)C)NC(=O)[C@H](CC3CCCCC3)NC(=O)[C@H](CCN)NC(=O)[C@@H](CC(C)C)NC(=O)[C@H](CCCN)NC(=O)[C@H](Cc3ccncc3)NC(=O)[C@H](Cc3ccc(-c4ccccc4)cc3)NC2=O)cc1 [Compound 2114] ({CH2CO}-RY(Carboxymethyl)D[Phe(3-Me)]Y(CH2COCH2)[Bip][4Pal][Orn][dL][Dab][Cha]VTC[Dab][Aun]-OH; thioether N-14) | 10 nM
5 | Cc1cccc(C[C@@H]2NC(=O)[C@H](CC(=O)O)NC(=O)[C@H](Cc3ccc(OCC(=O)O)cc3)NC(=O)[C@H](CCCNC(=N)N)NC(=O)CSC[C@@H](C(=O)N[C@@H](CCN)C(=O)NCCCCCCCCCCC(=O)O)NC(=O)[C@H](CO)NC(=O)[C@H](C(C)C)NC(=O)[C@H](CC3CCCCC3)NC(=O)[C@H](CCN)NC(=O)[C@@H](CC(C)C)NC(=O)[C@H](CCCN)NC(=O)[C@H](Cc3ccncc3)NC(=O)[C@H](Cc3ccc(-c4ccccc4)cc3)NC(=O)[C@H](Cc3ccc(OCC(=O)O)cc3)NC2=O)c1 [Compound 2115] ({CH2CO}-RY(Carboxymethyl)D[Phe(3-Me)]Y(Carboxymethyl)[Bip][4Pal][Orn][dL][Dab][Cha]VSC[Dab][Aun]-OH; thioether N-14) | 29.3 nM
6 | Cc1cccc(C[C@@H]2NC(=O)[C@H](CC(=O)O)NC(=O)[C@H](Cc3ccc(OCC(=O)O)cc3)NC(=O)[C@H](CCCNC(=N)N)NC(=O)CSC[C@@H](C(=O)N[C@H](C(=O)NCCCCCCCCCCC(=O)O)C(C)(C)CCN)NC(=O)[C@H]([C@@H](C)O)NC(=O)[C@H](C(C)C)NC(=O)[C@H](CC3CCCCC3)NC(=O)[C@H](CCN)NC(=O)[C@@H](CC(C)C)NC(=O)[C@H](CCCN)NC(=O)[C@H](Cc3ccc(OCC(=O)O)cc3)NC(=O)[C@H](Cc3ccc(-c4ccccc4)cc3)NC(=O)[C@H](Cc3ccc(O)cc3)NC2=O)c1 [Compound 2116] ({CH2CO}-RY(Carboxymethyl)D[Phe(3-Me)]Y[Bip]Y(Carboxymethyl)[Orn][dL][Dab][Cha]VTC[X5][Aun]-OH; thioether N-14) | 53.5 nM
7 | Cc1cccc(C[C@@H]2NC(=O)[C@H](CC(=O)O)NC(=O)[C@H](Cc3ccc(OCC(=O)O)cc3)NC(=O)[C@H](CCCNC(=N)N)NC(=O)CSC[C@@H](C(=O)N[C@@H](CCNC(=O)C(C)(C)C)C(=O)NCCCCCCCCCCC(=O)O)NC(=O)[C@H]([C@@H](C)O)NC(=O)[C@H](C(C)C)NC(=O)[C@H](CC3CCCCC3)NC(=O)[C@H](CCN)NC(=O)[C@@H](CC(C)C)NC(=O)[C@H](CCCN)NC(=O)[C@H](Cc3ccc(OCC(=O)O)cc3)NC(=O)[C@H](Cc3ccc(-c4ccccc4)cc3)NC(=O)[C@H](Cc3ccc(O)cc3)NC2=O)c1 [Compound 2117] ({CH2CO}-RY(Carboxymethyl)D[Phe(3-Me)]Y[Bip]Y(Carboxymethyl)[Orn][dL][Dab][Cha]VTC[Dab](Piv)[Aun]-OH; thioether N-14) | 26.3 nM
8 | Cc1cccc(C[C@@H]2NC(=O)[C@H](CC(=O)O)NC(=O)[C@H](Cc3ccc(OCC(=O)O)cc3)NC(=O)[C@H](CCCNC(=N)N)NC(=O)CSC[C@@H](C(=O)N[C@@H](CCN)C(=O)NCCCCCCCCCCC(=O)O)NC(=O)[C@H](C(C)(C)CCN)NC(=O)C(C(C)C)NC(=O)[C@H](CC3CCCCC3)NC(=O)[C@H](CCN)NC(=O)[C@@H](CC(C)C)NC(=O)[C@H](CCCN)NC(=O)[C@H](Cc3ccc(OCC(=O)O)cc3)NC(=O)[C@H](Cc3ccc(-c4ccccc4)cc3)NC(=O)[C@H](Cc3ccc(O)cc3)NC2=O)c1 (stereo partly drawn) [Compound 2118] ({CH2CO}-RY(Carboxymethyl)D[Phe(3-Me)]Y[Bip]Y(Carboxymethyl)[Orn][dL][Dab][Cha][ξV][X5]C[Dab][Aun]-OH; thioether N-14) | 126 nM
9 | Cc1cccc(C[C@@H]2NC(=O)[C@H](CC(=O)O)NC(=O)[C@H](Cc3ccc(OCC(=O)O)cc3)NC(=O)[C@H](CCCNC(=N)N)NC(=O)CSC[C@@H](C(=O)N[C@@H](CCN)C(=O)NCCCCCCCCCCC(=O)O)NC(=O)[C@H](CCNC(=O)C(C)(C)C)NC(=O)[C@H](C(C)C)NC(=O)[C@H](CC3CCCCC3)NC(=O)[C@H](CCN)NC(=O)[C@@H](CC(C)C)NC(=O)[C@H](CCCN)NC(=O)[C@H](Cc3ccc(OCC(=O)O)cc3)NC(=O)[C@H](Cc3ccc(-c4ccccc4)cc3)NC(=O)[C@H](Cc3ccc(O)cc3)NC2=O)c1 [Compound 2119] ({CH2CO}-RY(Carboxymethyl)D[Phe(3-Me)]Y[Bip]Y(Carboxymethyl)[Orn][dL][Dab][Cha]V[Dab](Piv)C[Dab][Aun]-OH; thioether N-14) | 10.3 nM
10 | Cc1cccc(C[C@@H]2NC(=O)[C@H](CC(=O)O)NC(=O)[C@H](Cc3ccc(OCC(=O)O)cc3)NC(=O)[C@H](CCCNC(=N)N)NC(=O)CSC[C@@H](C(=O)N[C@@H](CCN)C(=O)NCCCCCCCCCCC(=O)O)NC(=O)[C@H](CO)NC(=O)[C@H](C(C)(C)F)NC(=O)[C@H](CC3CCCCC3)NC(=O)[C@H](CCN)NC(=O)[C@@H](CC(C)C)NC(=O)[C@H](CCCN)NC(=O)[C@H](Cc3ccc(OCC(=O)O)cc3)NC(=O)[C@H](Cc3ccc(-c4ccccc4)cc3)NC(=O)[C@H](Cc3ccc(O)cc3)NC2=O)c1 [Compound 2121] ({CH2CO}-RY(Carboxymethyl)D[Phe(3-Me)]Y[Bip]Y(Carboxymethyl)[Orn][dL][Dab][Cha][Val(3-F)]SC[Dab][Aun]-OH; thioether N-14) | 8.3 nM
11 | Cc1cccc(C[C@@H]2NC(=O)[C@H](CC(=O)O)NC(=O)[C@H](Cc3ccc(OCC(=O)O)cc3)NC(=O)[C@H](CCCNC(=N)N)NC(=O)CSC[C@@H](C(=O)N[C@@H](CCN)C(=O)NCCCCCCCCCCC(=O)O)NC(=O)[C@H](CCC(N)=O)NC(=O)[C@H](C(C)C)NC(=O)[C@H](CC3CCCCC3)NC(=O)[C@H](CCN)NC(=O)[C@@H](CC(C)C)NC(=O)[C@H](CCCN)NC(=O)[C@H](Cc3ccc(OCC(=O)O)cc3)NC(=O)[C@H](Cc3ccc(-c4ccccc4)cc3)NC(=O)[C@H](C(C)(C)F)NC2=O)c1 [Compound 2122] ({CH2CO}-RY(Carboxymethyl)D[Phe(3-Me)][Val(3-F)][Bip]Y(Carboxymethyl)[Orn][dL][Dab][Cha]VQC[Dab][Aun]-OH; thioether N-14) | 10.9 nM
12 | Cc1cccc(C[C@@H]2NC(=O)[C@H](CC(=O)O)NC(=O)[C@H](Cc3ccc(OCC(=O)O)cc3)NC(=O)[C@H](CCCNC(=N)N)NC(=O)CSC[C@@H](C(=O)N[C@@H](CCN)C(=O)NCCCCCCCCCCC(=O)O)NC(=O)[C@H]([C@@H](C)O)NC(=O)[C@H](C(C)C)NC(=O)[C@H](CC3CCCCC3)NC(=O)[C@H](CCN)NC(=O)[C@@H](CC(C)C)NC(=O)[C@H](CCCN)NC(=O)[C@H](Cc3ccc(OCC(=O)O)cc3)NC(=O)[C@H](Cc3ccc(-c4ccccc4)cc3)NC(=O)[C@H](C(C)(C)F)NC2=O)c1 [Compound 2123] ({CH2CO}-RY(Carboxymethyl)D[Phe(3-Me)][Val(3-F)][Bip]Y(Carboxymethyl)[Orn][dL][Dab][Cha]VTC[Dab][Aun]-OH; thioether N-14) | 14.1 nM
